{"source": "patent US9598460B2", "about": "(UNIVERSITY OF NOTRE DAME DU LAC, priority 2011, dated 2017)", "key": {"[1]": {"target": "nucleotide binding site of three different antibodies", "test": "Sandwich ELISA, summary over three antibodies", "method": "(§1) FIG. 2B illustrates a sandwich ELISA, in accordance with various embodiments;\n(§2) HRP-streptavidin was used to bind the biotin, and a fluorescent substrate was used to quantify the amount of indole-3-butyric acid that was present on the surface.\nThus, the monovalent Kd values for the indole binding to the nucleotide binding site of three different antibodies ranged between 1-7 μM, showing a 7- to 50-fold enhancement in binding affinity over adenine."}, "[2]": {"target": "nucleotide binding site of mouse anti-FITC antibody", "test": "Sandwich ELISA binding of biotin-linked indole-3-butyric acid to antigen-captured antibody", "conditions": "fit of normalized fluorescent intensity, read-out: Kd (binding affinity)", "source_text": "as §1, §2"}, "[3]": {"target": "nucleotide binding site of chimeric human/mouse Rituximab", "test": "Sandwich ELISA binding of biotin-linked indole-3-butyric acid to antigen-captured antibody", "conditions": "fit of normalized fluorescent intensity, read-out: Kd (binding affinity)", "source_text": "as §1, §2"}, "[4]": {"target": "nucleotide binding site of rat anti-DNP antibody", "test": "Sandwich ELISA binding of biotin-linked indole-3-butyric acid to antigen-captured antibody", "conditions": "fit of normalized fluorescent intensity, read-out: Kd (binding affinity)", "source_text": "as §1, §2"}}, "note": "pKd: −log10 of the molar value.", "data": [{"smiles": "O=C(O)CCCc1c[nH]c2ccccc12", "note": "[indole-3-butyric acid]", "values": [{"measurement": "pKd", "setting": "[1]; range over three different antibodies, read-out: monovalent Kd values", "value": "5.15 to 6.00"}, {"measurement": "enhancement in binding affinity over adenine", "setting": "[1]; relative to adenine", "value": "7- to 50 fold"}, {"measurement": "pKd", "setting": "[2]", "value": 5.19}, {"measurement": "pKd", "setting": "[3]", "value": 5.77}, {"measurement": "pKd", "setting": "[4]", "value": 5.90}]}]}
